Values of other authors, collected in patent US20070202158A1, “Methods Of Administering Water-Soluble Prodrugs Of Propofol For Extended Sedation” (MGI GP, Inc., priority 2003, published 2007).

Test system: patients
Settings: anesthetic induction doses; cited from earlier work

## CC(C)c1cccc(C(C)C)c1O [propofol, 2,6-diisopropylphenol]
  patients with respiratory consequences, including reduction in tidal volume and apnea: up to 83%
